Tests used:
Format in all cases: in vivo
Brassica napus wildtype = assay: Greenhouse herbicide tolerance, post emergent; conditions: 7 days after treatment
Experimental: (§1) T1/T2 transgenic plants of Brassica napus containing cellulose synthase sequences or mutated gene variants thereof are tested for improved tolerance to herbicides in greenhouse studies with azine herbicides. For the pre-emergence treatment, the herbicides are applied directly after sowing by means of finely distributing nozzles. The containers are irrigated gently to promote germination and growth and subsequently covered with transparent plastic hoods until the plants have rooted. This cover causes uniform germination of the test plants, unless this has been impaired by the herbicides. For post emergence treatment, the test plants are first grown to a height of 3 to 15 cm, depending on the plant habit, and only then treated with the herbicides. For this purpose, the test plants are either sown directly, and grown in the same containers or they are first grown separately and transplanted into the test containers a few days prior to treatment.
(§2) Herbicide injury evaluations are taken at 1, 2 and 3 weeks after treatment. Plant biomass reduction is rated on a scale of 0% to 100%, 0% being no reduction of biomass compared to untreated control, and 100% being complete absence of biomass.

[1] = system: Brassica napus expressing BnaAnng01240D (SEQ ID 20) variant S1038F; assay: Greenhouse herbicide tolerance, post emergent; conditions: 7 days after treatment
Experimental: as §1, §2

[2] = system: Brassica napus expressing BnaA03g52020D (SEQ ID 15) variant G1015R; assay: Greenhouse herbicide tolerance, post emergent; conditions: 7 days after treatment
Experimental: as §1, §2

[3] = system: Brassica napus expressing BnaA01g04600D (SEQ ID 21) variant G1012R; assay: Greenhouse herbicide tolerance, post emergent; conditions: 7 days after treatment
Experimental: as §1, §2

[4] = system: Brassica napus expressing BnaA03g55200D (SEQ ID 12) variant S1041L; assay: Greenhouse herbicide tolerance, post emergent; conditions: 7 days after treatment
Experimental: as §1, §2

[5] = system: Brassica napus expressing BnaA03g55200D (SEQ ID 12) variant S1038F; assay: Greenhouse herbicide tolerance, post emergent; conditions: 7 days after treatment
Experimental: as §1, §2

[6] = system: Brassica napus expressing BnaAnng01240D (SEQ ID 20) variant S1041L; assay: 6-well plate injury test, T1 seeds on vermiculite; conditions: BnaAnng01240D S1041L event 1, 7 days after treatment
Experimental: (§3) Transgenic Brassica napus plants are assayed for improved tolerance to azine herbicides like e. g. 6-cyclopentyl-N4-(2,3,4,5,6-pentafluorophenyl)-1,3,5-triazine-2,4-diamine in 6-well plates. Therefore, 5-6 T1 seeds are sown on vermiculite and watered with half-strength murashige skoog nutrient solution, pH 5.8 (Murashige and Skoog (1962) Physiologia Plantarum 15: 473-497). Compounds are dissolved in dimethylsulfoxid (DMSO) and added to the medium (final DMSO concentration 0.1%). Multi well plates are incubated in a growth chamber at 22° C., 75% relative humidity and 110 μmol Phot*m^−2*s^−1 with 14: 10 h light: dark photoperiod. Growth inhibition is evaluated seven to ten days after seeding in comparison to wild type plants. Plant injury is rated on a scale of 0% to 100%, 0% being no injury and 100% being complete death.

[7] = system: Brassica napus expressing BnaAnng01240D (SEQ ID 20) variant S1038F; assay: 6-well plate injury test, T1 seeds on vermiculite; conditions: BnaAnng01240D S1038F event 1, 7 days after treatment
Experimental: as §3

[8] = system: Arabidopsis thaliana expressing AtCesA1_wt (SEQ ID 1); assay: 48-well plate growth inhibition, T2 seeds, tolerance factor; conditions: based on IC50 values of growth inhibition, seven to ten days after seeding
Experimental: (§4) Transgenic Arabidopsis thaliana plants (T2) are assayed for improved tolerance to azine herbicides like e. g. 6-cyclopentyl-N4-(2,3,4,5,6-pentafluorophenyl)-1,3,5-triazine-2,4-diamine in 48-well plates. Therefore, T2 seeds are surface sterilized by stirring for 5 min in ethanol+water (70+30 by volume), rinsing one time with ethanol+water (70+30 by volume) and two times with sterile, deionized water. The seeds are resuspended in 0.1% agar dissolved in water (w/v) Four to five seeds per well are plated on solid nutrient medium consisting of half-strength murashige skoog nutrient solution, pH 5.8 (Murashige and Skoog (1962) Physiologia Plantarum 15: 473-497). Compounds are dissolved in dimethylsulfoxid (DMSO) and added to the medium prior solidification (final DMSO concentration 0.1%). Multi well plates are incubated in a growth chamber at 22° C., 75% relative humidity and 110 μmol Phot*m^−2*s^−1 with 14:10 h light:dark photoperiod. Growth inhibition is evaluated seven to ten days after seeding in comparison to wild type plants. Tolerance factors are calculated based on IC50 values of growth inhibition of transformed versus non-transformed Arabidopsis plants.

[9] = system: Arabidopsis thaliana expressing AtCesA1_G1009D_G1013R (SEQ ID 1); assay: as above; conditions: based on IC50 values of growth inhibition, seven to ten days after seeding
Experimental: as §4

[10] = system: Arabidopsis thaliana expressing AtCesA3_S983F_S1040L (SEQ ID 3); assay: as above; conditions: based on IC50 values of growth inhibition, seven to ten days after seeding
Experimental: as §4

[11] = system: Arabidopsis thaliana expressing AtCesA3_S983F_S1037F (SEQ ID 3); assay: as above; conditions: based on IC50 values of growth inhibition, seven to ten days after seeding
Experimental: as §4

[12] = system: Arabidopsis thaliana expressing AtCesA1_P1010L_G1013R (SEQ ID 1); assay: as above; conditions: based on IC50 values of growth inhibition, seven to ten days after seeding
Experimental: as §4

Nc1nc(Nc2nc(F)c(F)c(Cl)c2F)nc(C2(F)CCCC2)n1 [N2-(4-chloro-3,5,6-trifluoro-2-pyridyl)-6-(1-fluorocyclopentyl)-1,3,5-triazine-2,4-diamine]
average phytotox value (Brassica napus wildtype; 7.8 g/ha): 42% | average phytotox value (Brassica napus wildtype; 15.6 g/ha): 56% | average phytotox value (Brassica napus wildtype; 31.25 g/ha): 70% | average phytotox value (Brassica napus wildtype; 62.5 g/ha): 83% | average phytotox value ([1]; 1st listed line, 7.8 g/ha): 7% | average phytotox value ([1]; 1st listed line, 15.6 g/ha): 17% | average phytotox value ([1]; 1st listed line, 31.25 g/ha): 47% | average phytotox value ([1]; 1st listed line, 62.5 g/ha): 54% | average phytotox value ([1]; 2nd listed line, 7.8 g/ha): 10% | average phytotox value ([1]; 2nd listed line, 15.6 g/ha): 33% | average phytotox value ([1]; 2nd listed line, 31.25 g/ha): 68% | average phytotox value ([1]; 2nd listed line, 62.5 g/ha): 71% | average phytotox value ([2]; 1st listed line, 7.8 g/ha): 34% | average phytotox value ([2]; 1st listed line, 15.6 g/ha): 43% | average phytotox value ([2]; 1st listed line, 31.25 g/ha): 50% | average phytotox value ([2]; 1st listed line, 62.5 g/ha): 73% | average phytotox value ([2]; 2nd listed line, 7.8 g/ha): 16% | average phytotox value ([2]; 2nd listed line, 15.6 g/ha): 41% | average phytotox value ([2]; 2nd listed line, 31.25 g/ha): 62% | average phytotox value ([2]; 2nd listed line, 62.5 g/ha): 72% | average phytotox value ([3]; 7.8 g/ha): 34% | average phytotox value ([3]; 15.6 g/ha): 61% | average phytotox value ([3]; 31.25 g/ha): 65% | average phytotox value ([3]; 62.5 g/ha): 72% | average phytotox value ([4]; 7.8 g/ha): 24% | average phytotox value ([4]; 15.6 g/ha): 53% | average phytotox value ([4]; 31.25 g/ha): 62% | average phytotox value ([4]; 62.5 g/ha): 76% | average phytotox value ([5]; 1st listed line, 7.8 g/ha): 8% | average phytotox value ([5]; 1st listed line, 15.6 g/ha): 6% | average phytotox value ([5]; 1st listed line, 31.25 g/ha): 47% | average phytotox value ([5]; 1st listed line, 62.5 g/ha): 54% | average phytotox value ([5]; 2nd listed line, 7.8 g/ha): 21% | average phytotox value ([5]; 2nd listed line, 15.6 g/ha): 51% | average phytotox value ([5]; 2nd listed line, 31.25 g/ha): 47% | average phytotox value ([5]; 2nd listed line, 62.5 g/ha): 68% | average phytotox value ([6]; 5*10-7): 90% | average phytotox value ([6]; 5*10^-8M): 0% | average phytotox value ([6]; 10^-6M): 90% | average phytotox value ([6]; 10^-7M): 10% | average phytotox value ([6]; 10^-8M): 0% | average phytotox value ([7]; 5*10-7): 30% | average phytotox value ([7]; 5*10^-8M): 5% | average phytotox value ([7]; 10^-6M): 85% | average phytotox value ([7]; 10^-7M): 30% | average phytotox value ([7]; 10^-8M): 0% | Relative tolerance rate as compared to non-transgenic Arabidopsis plants (non-transgenic = 1.0) [8]: 2 | Relative tolerance rate as compared to non-transgenic Arabidopsis plants (non-transgenic = 1.0) [9]: 1 | Relative tolerance rate as compared to non-transgenic Arabidopsis plants (non-transgenic = 1.0) [10]: 4 | Relative tolerance rate as compared to non-transgenic Arabidopsis plants (non-transgenic = 1.0) [11]: 5 | Relative tolerance rate as compared to non-transgenic Arabidopsis plants (non-transgenic = 1.0) [12]: 1

— patent US12203089B2, “Plants having increased tolerance to herbicides” (BASF SE, priority 2015, dated 2025)
